Laboratory results from ChEMBL document CHEMBL1137632, “Galanin message-associated peptide suppresses growth and the budded-to-hyphal-form transition of Candida albicans” (2007).
Active and inactive are the calls of the source. The rule behind the calls is not given here.

What was measured:
[1] = tested on: Candida albicans; test: Antifungal activity against Candida albicans SC5314 assessed as inhibition of fungal transformation from budded-to-hyphal-form at 4 uM after 24 hrs by microscopy; format: functional, organism-based
[2] = tested on: Candida albicans; test: Antifungal activity against Candida albicans SC5314 assessed as inhibition of fungal transformation from budded-to-hyphal-form at 1 uM after 24 hrs by microscopy; format: functional, organism-based
[3] = tested on: Candida albicans; test: Antifungal activity against Candida albicans SC5314 assessed as inhibition of fungal transformation from budded-to-hyphal-form at 2 uM after 24 hrs by microscopy; format: functional, organism-based
[4] = tested on: Candida albicans; test: Antifungal activity against Candida albicans clinical isolates at 6.3 uM after 16 hrs by BacTiter-Glow assay; format: functional, organism-based
[5] = tested on: Candida albicans; test: Antifungal activity against Candida albicans CBS 5983 at 6.3 uM after 16 hrs by BacTiter-Glow assay; format: functional, organism-based
[6] = tested on: Candida albicans; test: Antifungal activity against Candida albicans SC5314 at 6.3 uM after 16 hrs by BacTiter-Glow assay; format: functional, organism-based
[7] = tested on: Candida albicans; test: Antifungal activity against Candida albicans K2 at 6.3 uM after 16 hrs by BacTiter-Glow assay; format: functional, organism-based
[8] = tested on: Candida albicans; test: Antifungal activity against Candida albicans clinical isolates at 32 uM after 16 hrs by BacTiter-Glow assay; format: functional, organism-based
[9] = tested on: Candida albicans; test: Antifungal activity against Candida albicans K2 at 32 uM after 16 hrs by BacTiter-Glow assay; format: functional, organism-based
[10] = tested on: Candida albicans; test: Antifungal activity against Candida albicans CBS 5983 at 32 uM after 16 hrs by BacTiter-Glow assay; format: functional, organism-based
[11] = tested on: Candida albicans; test: Antifungal activity against Candida albicans SC5314 at 32 uM after 16 hrs by BacTiter-Glow assay; format: functional, organism-based
[12] = tested on: Candida albicans; test: Antifungal activity against Candida albicans K2 at 4.3 uM after 16 hrs by BacTiter-Glow assay relative to untreated control; format: functional; conditions: pooled result: one value given for 4 cell lines, strains, targets or settings
[13] = tested on: Candida albicans; test: Antifungal activity against Candida albicans SC5314 at 4.15 uM after 16 hrs by BacTiter-Glow assay relative to untreated control; format: functional
[14] = tested on: Candida albicans; test: Antifungal activity against Candida albicans K2 at 4.15 uM after 16 hrs by BacTiter-Glow assay relative to untreated control; format: functional
[15] = tested on: Candida albicans; test: Antifungal activity against Candida albicans clinical isolates at 4.15 uM after 16 hrs by BacTiter-Glow assay relative to untreated control; format: functional
[16] = tested on: Candida albicans; test: Antifungal activity against Candida albicans CBS 5983 at 4.15 uM after 16 hrs by BacTiter-Glow assay relative to untreated control; format: functional
[17] = tested on: Candida albicans; test: Antifungal activity against Candida albicans CBS 5983 at 4 uM after 16 hrs by BacTiter-Glow assay; format: functional, organism-based
[18] = tested on: Candida albicans; test: Antifungal activity against Candida albicans CBS 5983 at 4.1 uM after 16 hrs by BacTiter-Glow assay; format: functional, organism-based
[19] = tested on: Candida albicans; test: Antifungal activity against Candida albicans K2 at 4 uM after 16 hrs by BacTiter-Glow assay; format: functional, organism-based
[20] = tested on: Candida albicans; test: Antifungal activity against Candida albicans K2 at 4.1 uM after 16 hrs by BacTiter-Glow assay; format: functional, organism-based
[21] = tested on: Candida albicans; test: Antifungal activity against Candida albicans clinical isolates at 4.1 uM after 16 hrs by BacTiter-Glow assay; format: functional, organism-based
[22] = tested on: Candida albicans; test: Antifungal activity against Candida albicans SC5314 at 4.1 uM after 16 hrs by BacTiter-Glow assay; format: functional, organism-based
[23] = tested on: Candida albicans; test: Antifungal activity against Candida albicans clinical isolates at 4 uM after 16 hrs by BacTiter-Glow assay; format: functional, organism-based
[24] = tested on: Candida albicans; test: Antifungal activity against Candida albicans SC5314 at 4 uM after 16 hrs by BacTiter-Glow assay; format: functional, organism-based
[25] = tested on: Candida albicans; test: Antifungal activity against Candida albicans clinical isolates at 24.3 uM after 16 hrs by BacTiter-Glow assay; format: functional, organism-based
[26] = tested on: Candida albicans; test: Antifungal activity against Candida albicans K2 at 24.3 uM after 16 hrs by BacTiter-Glow assay; format: functional, organism-based
[27] = tested on: Candida albicans; test: Antifungal activity against Candida albicans CBS 5983 at 24.3 uM after 16 hrs by BacTiter-Glow assay; format: functional, organism-based
[28] = tested on: Candida albicans; test: Antifungal activity against Candida albicans SC5314 at 24.3 uM after 16 hrs by BacTiter-Glow assay; format: functional, organism-based

For `CC[C@H](C)[C@H](NC(=O)[C@H](C)NC(=O)CNC(=O)[C@H](C)NC(=O)[C@H](CCC(=O)O)NC(=O)[C@H](CCCCN)NC(=O)[C@H](CC(C)C)NC(=O)[C@H](Cc1cnc[nH]1)NC(=O)[C@H](CC(C)C)NC(=O)[C@H](Cc1ccccc1)NC(=O)[C@H](CO)NC(=O)[C@H](CC(C)C)NC(=O)[C@H](Cc1ccccc1)NC(=O)[C@H](CCC(=O)O)NC(=O)[C@@H](NC(=O)[C@@H](NC(=O)[C@@H](NC(=O)[C@H](CCCNC(=N)N)NC(=O)[C@H](CCSC)NC(=O)[C@@H](NC(=O)[C@H](CC(N)=O)NC(=O)[C@H](CC(N)=O)NC(=O)[C@H](CCC(=O)O)NC(=O)[C@@H]1CCCN1C(=O)[C@@H](NC(=O)[C@H](CO)NC(=O)[C@H](CCCNC(=N)N)NC(=O)[C@H](CC(=O)O)NC(=O)[C@H](Cc1ccccc1)NC(=O)[C@H](CO)NC(=O)CNC(=O)[C@@H]1CCCN1C(=O)[C@H](CCCCN)NC(=O)[C@H](CCSC)NC(=O)[C@H](CC(=O)O)NC(=O)[C@H](CC(=O)O)NC(=O)[C@H](CCC(=O)O)NC(=O)[C@@H]1CCCN1C(=O)[C@H](CCCNC(=N)N)NC(=O)[C@H](CC(C)C)NC(=O)[C@@H](N)CCC(=O)O)[C@@H](C)CC)[C@@H](C)CC)[C@H](C)O)[C@@H](C)CC)[C@@H](C)CC)C(=O)O`, the Activity [1] was “Active”, the Activity [2] was “inactive” and the Activity [3] was “Active”.

For `CC[C@H](C)[C@H](NC(=O)[C@H](C)NC(=O)[C@H](Cc1c[nH]cn1)NC(=O)[C@@H]1CCCN1C(=O)CNC(=O)[C@H](CC(C)C)NC(=O)[C@H](CC(C)C)NC(=O)[C@H](Cc1ccc(O)cc1)NC(=O)CNC(=O)[C@H](C)NC(=O)[C@H](CO)NC(=O)[C@H](CC(N)=O)NC(=O)[C@H](CC(C)C)NC(=O)[C@@H](NC(=O)[C@H](Cc1c[nH]c2ccccc12)NC(=O)CN)[C@@H](C)O)C(=O)N[C@@H](CC(=O)O)C(=O)N[C@@H](CC(N)=O)C(=O)N[C@@H](Cc1c[nH]cn1)C(=O)N[C@@H](CCCNC(=N)N)C(=O)N[C@@H](CO)C(=O)N[C@@H](Cc1ccccc1)C(=O)N[C@@H](Cc1c[nH]cn1)C(=O)N[C@@H](CC(=O)O)C(=O)N[C@@H](CCCCN)C(=O)N[C@@H](Cc1ccc(O)cc1)C(=O)NCC(=O)N[C@@H](CC(C)C)C(=O)N[C@@H](C)C(N)=O`, the Activity [4] was “inactive”, the Activity [5] was “inactive” and the Activity [6] was “inactive”. For the same compound, the Activity [7] was “inactive”.

For `OC(Cn1cncn1)(Cn1cncn1)c1ccc(F)cc1F`, the Activity [8] was “Active”, the Activity [9] was “Active” and the Activity [10] was “Active”. The Activity [11] was “Active”.

With “H-ELRPEDDMKPGSFDRSIPENNIMRTIIEFLSFLHLKEAGAL-OH” the Activity [12] was 48.7%.

In the case of “H-GIGKFLHSAGKFGKAFVGEIMKS-OH [MAGAININ I]”, the Activity [13] is reported as over 90%, the Activity [14] is reported as over 90% and the Activity [15] is reported as over 90%. It also gave an Activity [16] of over 90%.

For H-LQSEDKAIRTIMEFLAFLHLKEAGAL-OH, the Activity [1] was “Active”, the Activity [17] was “Active” and the Activity [18] was “Active”. The Activity [19] was “Active”, the Activity [20] was “Active” and the Activity [21] was “Active”. For the same compound, the Activity [22] was “Active”, the Activity [23] was “Active” and the Activity [24] was “Active”.

H-PENNIMRTIIEFLSFLHLKEAGAL-OH was tested, and the Activity [25] was “inactive”, the Activity [26] was “inactive” and the Activity [27] was “inactive”. For the same compound, the Activity [28] was “inactive”.

For H-SIPENNIMRTIIEFLSFLHLKEAGAL-OH, the Activity [1] was “Active”, the Activity [2] was “inactive” and the Activity [17] was “Active”. The Activity [18] was “Active”, the Activity [19] was “Active” and the Activity [20] was “Active”. The Activity [21] was “Active”, the Activity [22] was “Active” and the Activity [23] was “Active”. For the same compound, the Activity [3] was “Active” and the Activity [24] was “Active”.
